The values below come from patent publication US20230250392A1, “MEDIA AND METHODS FOR ENHANCING THE SURVIVAL AND PROLIFERATION OF STEM CELLS” (STEMCELL TECHNOLOGIES CANADA INC., priority 2017, published 2023).

Type in all cases: cell-based, human
One experiment relates to H1, WLS-1C, and H9 hPSCs. In words: Example 13: cloning efficiency with detrimental fatty acids loaded onto a BSA sample. Conditions: 300 μg/g loaded onto a specific BSA sample. The method, then:
In the experiment shown in FIG. 13, 300 μg/g of either arachidonic acid or α-linolenic acid were loaded onto a specific BSA sample and added to a culture comprising H1, WLS-1C, and H9 hPSCs.

For the next experiment, the system named is H1 and WLS-1C hPSCs. In words: Example 12: cloning efficiency with individual free fatty acids in the presence of a carrier. Conditions: 600 μg free fatty acid per gram of carrier spiked into mTeSR1 plus 10 μM Y-27632. The method, then: 12-well culture plates were coated with 0.5 mL of cloning matrix or extracellular matrix (1:25 dilution in […] Dilution Buffer) and placed at room temperature for 1 hour. The matrix was then aspirated and 1 mL of media (mTeSRTM1 or TeSRTM-E8TM supplemented with either 10 μM Y27632 or media comprising lipid-enriched albumin, GABA, pipecolic acid, lithium chloride, FGF, TGFβ and Y-27632 (hereafter termed cloning supplement)) was added to each well and the plate was placed at 37° C. for 1 hour. hPSC lines were dissociated to single cells and seeded into the pre-warmed plates at 25 cells/cm^2 and placed at 37° C. for two days. The cells were then fed with fresh media (mTeSRTM1 or TeSRTM-E8TM supplemented with either 10 μM Y-27632 or cloning supplement) and placed at 37° C. for two days. On day four the cells were then fed with 1 mL of mTeSRTM1 or TeSRTM-E8TM without additives and fed daily until day seven. Cells were then fixed using 4% paraformaldehyde and stained for alkaline phosphatase. Undifferentiated colonies were then counted and cloning efficiency was determined using the following calculation: (Number of undifferentiated colonies at day seven (per well)/Number of cells seeded at day zero (per well))×100. (Error bars represent standard deviation from three biological replicates). In this experiment, 600 μg of the shown free fatty acids were spiked into culture medium (mTeSRTM1 plus 10 μM Y-27632) per gram of carrier also spiked into the culture medium. Cloning efficiencies were calculated as described in Example 1, for example.

Experiment [1] concerns WLS-1C, H1 and STiPS-F016 cells. In words: Example 8: cloning efficiency with lipid poor albumin loaded with one, two or three fatty acids. Conditions: for cloning efficiency in comparison to the 3 fatty acid-loaded albumin: H1, WLS-1C, STiPS-F016, fatty acid loaded on lipid poor albumin at 600 μg per gram, final 6 ng/mL. The protocol: In particular, each of the one or more fatty acids was incubated with albumin at a concentration of 600 μg of each fatty acid per gram of albumin. The product of such incubation was subsequently added to the culture medium at a final concentration of 6 ng/mL.

The test system of the next experiment is WLS-1C and H1 cells. The experiment is described as follows: Example 11: cloning efficiency with albumins of different suppliers with or without two free fatty acids. Conditions: for cloning efficiency of albumin without the additional two free fatty acids: compared among suppliers' albumins; for cloning efficiency when albumin is provided along with two free fatty acids: versus the same albumin without added fatty acids.

Regarding `CCCCC/C=C\C/C=C\C/C=C\C/C=C\CCCC(=O)O` [arachidonic acid], the “cloning efficiency of the tested BSA sample” value in the experiment with H1, WLS-1C, and H9 hPSCs was “decreased the cloning efficiency”. The “effect on survival and proliferation (cloning efficiency)” value (“effect on survival and proliferation” below) in the experiment with H1 and WLS-1C hPSCs was “detrimental”.

Consider `CC(C)CCC[C@@H](C)[C@H]1CC[C@H]2[C@@H]3CC=C4C[C@@H](O)CC[C@]4(C)[C@H]3CC[C@]12C` [cholesterol], for which the “effect on survival and proliferation” value with H1 and WLS-1C hPSCs was “helpful in enhancing the survival and proliferation”.

Consider `CCCCC/C=C\C/C=C\CCCCCCCC(=O)O` [linoleic acid], for which the “cloning efficiency relative to control and oleic and/or palmitic acid” value in experiment [1] (WLS-1C and H1, only this fatty acid loaded on albumin at 600 μg per gram) is on record as “reduce cloning efficiency”.

`CCCCCCCCCCCCCC(=O)O` [myristic acid]: the “effect on survival and proliferation” value with H1 and WLS-1C hPSCs was “helpful in enhancing the survival and proliferation”.

Turning to `CCCCCCCC/C=C\CCCCCCCC(=O)O` [oleic acid], the “effect on survival and proliferation” value in the experiment on H1 and WLS-1C hPSCs was “helpful in enhancing the survival and proliferation”. Besides, in experiment [1], the “cloning efficiency in comparison to the 3 fatty acid-loaded albumin” value is on record as “comparable cloning efficiencies”.

Take `CCCCCCCCCCCCCCCC(=O)O` [palmitic acid]: the “effect on survival and proliferation” value in the experiment on H1 and WLS-1C hPSCs was “helpful in enhancing the survival and proliferation”. Also, the “cloning efficiency in comparison to the 3 fatty acid-loaded albumin” value in experiment [1] was “comparable cloning efficiencies”.

As to `CCCCCCCCCCCCCCCCCC(=O)O` [stearic acid], the “effect on survival and proliferation” value with H1 and WLS-1C hPSCs is “helpful in enhancing the survival and proliferation”.

Consider `CC/C=C\C/C=C\C/C=C\CCCCCCCC(=O)O` [α-linolenic acid], for which the “cloning efficiency of the tested BSA sample” value in the experiment with H1, WLS-1C, and H9 hPSCs is given as “decreased the cloning efficiency”. In addition, the “effect on survival and proliferation” value in the experiment on H1 and WLS-1C hPSCs is recorded as “detrimental”.

“A1: BSA of Supplier A lot 1, already comprising 3000-7000 ug/g overall fatty acid”: in the experiment with WLS-1C and H1 cells, the “cloning efficiency of albumin without the additional two free fatty acids” value was “lowest cloning efficiencies” and the “cloning efficiency when albumin is provided along with two free fatty acids” value is listed as “not enhanced”.

In the case of “A2: BSA of Supplier A lot 2, already comprising 3000-7000 ug/g overall fatty acid”, in the experiment on WLS-1C and H1 cells, the “cloning efficiency of albumin without the additional two free fatty acids” value was “lowest cloning efficiencies” and the “cloning efficiency when albumin is provided along with two free fatty acids” value is listed as “not enhanced”.
